How the values were obtained:
Format in all cases: in vivo, human
[1] = test system: CD89 expression on granulocytes; test: CD89 expression on granulocytes in blood, microvolume laser scanning cytometry, before/after oral prednisone; settings: after three days of oral prednisone, adjusted p-value < 0.001
Excerpt: (§1) The inventive biomarkers were identified in a study of the effects of oral prednisone on biological markers of allergy and asthma. Eighty subjects were enrolled in the study, 23 with atopic asthma, 28 with allergy alone, 26 with neither allergy nor asthma (healthy controls), and 3 with asthma alone. Allergy was defined by a positive skin prick test. Mild asthma was defined as positive methacholine challenge within the last three months, as well as one or more of documented diagnosis of asthma, history of cough, recurrent wheeze, recurrent difficult breathing, and recurrent chest tightening. […] Cellular markers in the blood samples were evaluated using the SurroScan™ microvolume laser scanning cytometry system for multiparameter cellular analysis. […] In addition, the relative levels of 49 different cell surface antigens (activation antigens, co-stimulatory molecules, adhesion molecules, antigen receptors, cytokine receptors) on specific cell populations were measured. […] Each fluorophore was measured in a separate detection channel, and images were converted to flow cytometry standard format and analyzed with FlowJo™ cytometry analysis software. […] Following data acquisition, variables were analyzed to assess differences in subject groups before drug administration, as well as changes following drug administration. […]

[2] = test system: CD38 expression on CD4 T cells; test: CD38 expression on CD4 T cells in blood, cytometry, before/after oral prednisone; settings: after three days of oral prednisone; all disease groups; mean pre drug 32.9 (9.8); adjusted p-value < 0.001
Excerpt: as §1

[3] = test system: HLA class II expression on B cells; test: HLA class II expression on B cells in blood, cytometry, before/after oral prednisone; settings: after three days of oral prednisone, all disease groups, adjusted p-value < 0.001
Excerpt: The inventive biomarkers were identified in a study of the effects of oral prednisone on biological markers of allergy and asthma. Eighty subjects were enrolled in the study, 23 with atopic asthma, 28 with allergy alone, 26 with neither allergy nor asthma (healthy controls), and 3 with asthma alone. Allergy was defined by a positive skin prick test. Mild asthma was defined as positive methacholine challenge within the last three months, as well as one or more of documented diagnosis of asthma, history of cough, recurrent wheeze, recurrent difficult breathing, and recurrent chest tightening. Approximately half of the subjects from each disease group were given oral prednisone for three days, while the other half was given a placebo. Blood samples were taken before treatment and after three days of treatment with oral prednisone or placebo. Cellular markers in the blood samples were evaluated using the SurroScan™ microvolume laser scanning cytometry system for multiparameter cellular analysis. Monoclonal antigen-specific antibodies were purchased from commercial vendors and coupled to one of three different fluorophores, Cy5, Cy5.5, and Cy7-APC. Assays were performed to monitor cell counts of more than 200 different cell populations, including granulocytes, eosinophils, monocytes, CD4 and CD8 T cells, B cells, and NK cells. In addition, the relative levels of 49 different cell surface antigens (activation antigens, co-stimulatory molecules, adhesion molecules, antigen receptors, cytokine receptors) on specific cell populations were measured. […] Each fluorophore was measured in a separate detection channel, and images were converted to flow cytometry standard format and analyzed with FlowJo™ cytometry analysis software. […] Following data acquisition, variables were analyzed to assess differences in subject groups before drug administration, as well as changes following drug administration. A total of 713 variables, including cell populations, cell surface antigen expression, and soluble factors, were analyzed. […]

[4] = test system: CD62L expression on B cells; test: CD62L expression on B cells in blood, cytometry, before/after oral prednisone; settings: after three days of oral prednisone; all disease groups; mean pre drug 2998 (505); adjusted p-value < 0.001
Excerpt: as §1

monocytes = test: Monocyte count in blood, cytometry, before/after oral prednisone; settings: after three days of oral prednisone; all disease groups; mean pre drug 369 (121); adjusted p-value < 0.001
Excerpt: as §1

[5] = test system: HLA class II expression on monocytes; test: HLA class II expression on monocytes in blood, cytometry, before/after oral prednisone; settings: after three days of oral prednisone, all disease groups, adjusted p-value < 0.001
Excerpt: The inventive biomarkers were identified in a study of the effects of oral prednisone on biological markers of allergy and asthma. Eighty subjects were enrolled in the study, 23 with atopic asthma, 28 with allergy alone, 26 with neither allergy nor asthma (healthy controls), and 3 with asthma alone. Allergy was defined by a positive skin prick test. Mild asthma was defined as positive methacholine challenge within the last three months, as well as one or more of documented diagnosis of asthma, history of cough, recurrent wheeze, recurrent difficult breathing, and recurrent chest tightening. Approximately half of the subjects from each disease group were given oral prednisone for three days, while the other half was given a placebo. Blood samples were taken before treatment and after three days of treatment with oral prednisone or placebo. Cellular markers in the blood samples were evaluated using the SurroScan™ microvolume laser scanning cytometry system for multiparameter cellular analysis. Monoclonal antigen-specific antibodies were purchased from commercial vendors and coupled to one of three different fluorophores, Cy5, Cy5.5, and Cy7-APC. Assays were performed to monitor cell counts of more than 200 different cell populations, including granulocytes, eosinophils, monocytes, CD4 and CD8 T cells, B cells, and NK cells. In addition, the relative levels of 49 different cell surface antigens (activation antigens, co-stimulatory molecules, adhesion molecules, antigen receptors, cytokine receptors) on specific cell populations were measured. The prepared antibody-dye reagents were combined into cocktails and incubated with aliquots of whole or red blood cell-lysed blood in the dark at room temperature for 20 minutes. The samples were then diluted with an appropriate buffer and loaded into capillary arrays for analysis. Each fluorophore was measured in a separate detection channel, and images were converted to flow cytometry standard format and analyzed with FlowJo™ cytometry analysis software. Template gates were used to enumerate the cell populations of interest in all of the assays. Following data acquisition, variables were analyzed to assess differences in subject groups before drug administration, as well as changes following drug administration. A total of 713 variables, including cell populations, cell surface antigen expression, and soluble factors, were analyzed. […] Univariate tests were performed on individual variables, and the step-down Bonferroni p-value adjustment method of Holm was employed to control for multiple comparisons. The Bonferroni correction, which reduces the number of false positives, is described above. Univariate tests were performed on the data before and after drug administration for both the drug and placebo groups. In order to determine whether any non-normality of the data affected the tests, both non-parametric tests (sign rank or sign) and parametric paired t-tests were performed. Statistical tests for normality, skewness, and kurtosis were performed per variable to assess normality. For sufficiently normally distributed data, the paired t-test result was used; otherwise, the nonparametric result was used. All p-values were adjusted using the step-down Bonferroni method, maintaining the overall study false positive rate below 5%. […] When the analysis was performed on the separate disease classes individually, no significant differences were found before and after drug administration. Additionally, a linear-mixed model was used to evaluate fixed and random effects for the prednisone and placebo groups. This model notes the difference in response in the drug and placebo to indicate whether the observed trends can be attributed to the drug alone. The model, executed with PROC MIXED in SAS™, used the three fixed effects of drug, time, and (drug×time) to fit the data.

MMP-3 = MMP-3 concentration, sandwich ELISA, before/after oral prednisone; settings: after three days of oral prednisone; all disease groups; mean pre drug 37 (29); adjusted p-value < 0.001
Excerpt: (§2) The inventive biomarkers were identified in a study of the effects of oral prednisone on biological markers of allergy and asthma. Eighty subjects were enrolled in the study, 23 with atopic asthma, 28 with allergy alone, 26 with neither allergy nor asthma (healthy controls), and 3 with asthma alone. Allergy was defined by a positive skin prick test. Mild asthma was defined as positive methacholine challenge within the last three months, as well as one or more of documented diagnosis of asthma, history of cough, recurrent wheeze, recurrent difficult breathing, and recurrent chest tightening. Approximately half of the subjects from each disease group were given oral prednisone for three days, while the other half was given a placebo. Blood samples were taken before treatment and after three days of treatment with oral prednisone or placebo. […] Finally, the chemiluminescent alkaline phosphatase substrate was added and incubated before reading. Standard curves and analyte amounts were determined using curve fitting techniques. Following data acquisition, variables were analyzed to assess differences in subject groups before drug administration, as well as changes following drug administration. A total of 713 variables, including cell populations, cell surface antigen expression, and soluble factors, were analyzed. […]

SAA = SAA concentration, sandwich ELISA, before/after oral prednisone; settings: after three days of oral prednisone; all disease groups; mean pre drug 2.73 (3.3); adjusted p-value < 0.001
Excerpt: as §2

## C[C@]12C=CC(=O)C=C1CC[C@@H]1[C@@H]2C(=O)C[C@@]2(C)[C@H]1CC[C@]2(O)C(=O)CO [prednisone]
[1]; all disease groups (atopic, atopic asthmatic, healthy), mean pre drug 85 (20)
  CD89+ granulocyte population, Mean Post Drug (SD): 96 (9) % of total granulocytes
[1]; all disease groups, mean pre drug 2047 (1549)
  CD89 on granulocytes (expression intensity), Mean Post Drug (SD): 2527 (1691) arbitrary units
[2]
  CD38+ CD4 T cells, Mean Post Drug (SD): 29.3 (9.1) % of all CD4 T cells
[3]; mean pre drug 3123 (1090)
  HLA-DQ on B cells (expression intensity), Mean Post Drug (SD): 1680 (817) arbitrary units
[3]; mean pre drug 8108 (2711)
  HLA-DR on B cells (expression intensity), Mean Post Drug (SD): 4486 (2025) arbitrary units
[3]; mean pre drug 11684 (3190)
  HLA-PAN on B cells (expression intensity), Mean Post Drug (SD): 6550 (3123) arbitrary units
[4]
  CD62L on B cells (expression intensity), Mean Post Drug (SD): 2479 (478) arbitrary units
monocytes
  Monocytes (count), Mean Post Drug (SD): 478 (160) cells/μl
[5]; mean pre drug 8.7 (4.39)
  HLADQ+ monocyte population, Mean Post Drug (SD): 3.6 (2.49) % of total monocytes
[5]; mean pre drug 84.4 (14.0)
  HLADR+ monocyte population, Mean Post Drug (SD): 75.4 (16.9) % of total monocytes
[5]; mean pre drug 91.8 (8.4)
  HLAPAN+ monocyte population, Mean Post Drug (SD): 83.0 (15.1) % of total monocytes
[5]; mean pre drug 165 (103)
  HLA-DQ on monocytes (expression intensity), Mean Post Drug (SD): 69 (52) arbitrary units
[5]; mean pre drug 2966 (1068)
  HLA-DR on monocytes (expression intensity), Mean Post Drug (SD): 1970 (729) arbitrary units
[5]; mean pre drug 4961 (1738)
  HLA-PAN on monocytes (expression intensity), Mean Post Drug (SD): 3196 (1046) arbitrary units
MMP-3
  MMP-3 concentration, Mean Post Drug (SD): 188 (140) ng/ml
SAA
  SAA concentration, Mean Post Drug (SD): 6.71 (14.5) μg/ml

Reference: patent publication US20050002862A1, “Biological markers for evaluating therapeutic treatment of inflammatory and autoimmune disorders” (priority 2000, published 2005)
